Source: the NIST ThermoML archive (doi:10.1021/je200853g)
Numbers after ± are expanded uncertainties.

Assays:
[1] = Crystal; DTA
[2] = Molar enthalpy of transition or fusion; conditions: Crystal; DSC

- Triple point temperature [1]: 433.18 ± 0.5 K
- Molar enthalpy of transition or fusion [2]: 7.45 ± 0.217 kcal/mol
SMILES: Cc1ncc(CO)c(CO)c1O [5-hydroxy-6-methyl-3,4-pyridinedimethanol]
